Consider 20 compounds from US7964613B2 (Asahi Kasei Pharma Corporation, priority 2007, dated 2011).

Some results are limits rather than exact numbers.

One experiment deals with T1, human ROCK1 (Homo sapiens, UniProt Q13464).
T1 construct: His tag (N); host or cells: insect cells (Sf9)
The experiment in a line: Measurement of Rho kinase inhibitory activity (ELISA of MBS phosphorylation). The class given is biochemical. As to conditions: human ROCK1, MBS substrate, 100 μM ATP, 30° C. for 10 minutes. Put shortly: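 N-terminal His-tagged human ROCK1 (1-727, Sf9-expressed) phosphorylated plate-immobilized MBS in 20 mM HEPES pH 7.5, 100 μM ATP, 30° C for 10 minutes. Phospho-MBS detected by antibody ELISA (A490); IC50 is concentration giving 50% inhibition.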
A general note: ELISA stands for enzyme-linked immunosorbent assay.

Experiment [1] has as its system rabbit normal intraocular pressure. Nature of the experiment: Intraocular pressure reducing action. The class given is in vivo, Japanese white rabbit. The conditions noted are these: Oryctolagus cuniculus, topical, read-out: intraocular pressure reducing degree; for inhibition in vivo at 3000 µM: 3 mM aqueous solution, 50 μl to the left eye, max IOP reduction (2, 4, 6 hours) / value immediately before administration. The procedure, abridged:
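Japanese white rabbits (~2 kg) under topical anaesthesia received 50 μl of a 3 mM aqueous test solution in the left eye, right eye untreated. IOP read by tonometer before and at 2, 4, 6 h; maximal left–right difference divided by pre-dose IOP ×100 gives % reduction.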

The subject of a further experiment is TNF-α production. Nature of the experiment: Inhibitory effect on TNF-α production in mice (LPS). In kind it is in vivo, BALB/c mice. As to conditions: Mus musculus, 1.5 h; oral administration of 30 mg/kg, LPS 5 μg i.p. 60 minutes later, plasma after 90 minutes; read-out: TNF-α production suppressing action. On the procedure:
BALB/c mice (Japan CRJ, famale) were used as experimental animals. Each test compound was dissolved in distilled water at a concentration suitable for the examination. The weight of each mouse was measured, a test compound solution was orally administered in a volume corresponding to 10 ml/kg, and only distilled water was administered to the control group. Each group consisted of five to seven animals. LPS was dissolved in physiological saline, and intraperitoneally administered to each mouse in an amount of 5 μg. The test compound was administered first, and LPS (lipopolysaccharide, Sigma) was administered 60 minutes later. After 90 minutes, blood was collected from the abdominal large vein in the presence of heparin, and plasma was obtained by centrifugation. TNF-α content in the plasma was measured by using the ELISA method.

The test system of experiment [2] is mouse neuroblastoma cell strain N1E-115. Nature of the experiment: Inhibitory effect on neurite retraction (LPA-induced). The conditions noted are these: mouse/rat NG108-15; 10 μM compound, 1 μM LPA, N1E-115 cells. The class given is cell-based. As to the method:
An experiment for Inhibitory effect on neurite retraction using mouse neuroblastoma cell strain N1E-115 was performed according to the method of Hirose, M. et al. (J. Cell. Biol., 141, pp. 1625-1636 (1998)). This method utilizes the fact that LPA (lysophosphatidic acid), which is a endogenous substance, induces neurite retraction, and is a method of evaluating how much a drug can inhibit the LPA-induced neurite retraction and thereby evaluating potency of inhibition of neuronal degeneration and potency of neuronal regeneration of the drug. N1E-115 cells cultured in a DMEM solution containing 20% heat-inactivated fetal bovine serum were plated on a 6-well plate (IWAKI) at a density of 40,000 cells/well, and cultured overnight at 37° C. in the same culture medium in a 5% CO2 incubator. In order to induce differentiation of the N1E 115 cells into nerve cells, the culture medium was changed to the serum-free DMEM solution, and the cells were cultured for 1 or 2 days at 37° C. in the 5% CO2 incubator until most of the cells extended the neurites. On the examination day, each compound of the present invention was added at a final concentration of 10 μM, incubation was performed for 30 minutes, then LPA (Sigma) was added at a final concentration of 1 μM, and incubation was further performed for 10 minutes. To the control, the same volume of phosphate buffered saline as the solvent was added. After completion of the incubation, glutaraldehyde was added at a final concentration of 5% to fix the cells. […] The inhibition rate (%) of each drug was calculated by using the following equation. Inhibition rate(%)=100−(RCP obtained with drug to be evaluated−RCP of control)/(RCP obtained with LPA−RCP of control)×100

T1 sequence (Q13464 1-727): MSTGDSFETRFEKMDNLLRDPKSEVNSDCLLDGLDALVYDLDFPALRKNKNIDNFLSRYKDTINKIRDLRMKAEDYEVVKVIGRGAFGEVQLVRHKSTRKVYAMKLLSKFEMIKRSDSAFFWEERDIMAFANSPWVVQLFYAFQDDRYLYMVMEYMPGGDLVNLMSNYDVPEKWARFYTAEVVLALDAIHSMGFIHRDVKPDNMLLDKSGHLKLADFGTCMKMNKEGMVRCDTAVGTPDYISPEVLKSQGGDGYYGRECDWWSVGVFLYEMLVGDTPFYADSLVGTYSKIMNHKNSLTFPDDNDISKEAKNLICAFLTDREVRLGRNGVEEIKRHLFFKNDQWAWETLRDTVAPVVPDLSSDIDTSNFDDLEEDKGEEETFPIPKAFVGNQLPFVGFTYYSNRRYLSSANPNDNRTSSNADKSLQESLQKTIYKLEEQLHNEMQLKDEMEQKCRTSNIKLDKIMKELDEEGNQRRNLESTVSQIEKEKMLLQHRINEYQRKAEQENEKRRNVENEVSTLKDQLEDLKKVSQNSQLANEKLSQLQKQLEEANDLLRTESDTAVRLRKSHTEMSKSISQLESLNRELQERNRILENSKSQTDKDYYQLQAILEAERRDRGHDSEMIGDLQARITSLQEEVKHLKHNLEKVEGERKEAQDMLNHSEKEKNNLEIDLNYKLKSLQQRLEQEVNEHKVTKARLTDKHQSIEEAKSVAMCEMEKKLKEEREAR

As a reminder, the IC50 is the concentration needed to halve the response being measured. A higher IC50 goes with weaker potency in that assay. On to `CN[C@H]1CCN(S(=O)(=O)c2cccc3cncc(Br)c23)C1` [Example 1-3, (S)-1-(4-Bromo-5-isoquinolinesulfonyl)-3-(methylamino)pyrrolidine], for which the concentration for half-maximal inhibition (IC50) at human ROCK1 is < 1000 nM. For the same compound, the inhibition in vivo at 3000 µM in experiment [1] is ≥ 20%. In addition, the inhibition in vivo at 1000 µM in experiment [1] (test compound of 1 mM, same test as Test Example 3) was ≥ 20%. Further, the inhibition in vivo at 30 mg/kg with TNF-α production is ≥ 50%.
On to `Cc1ccc(CN[C@H]2CCN(S(=O)(=O)c3cccc4cncc(Br)c34)C2)cc1` [Example 1-12], for which the IC50 on human ROCK1 is < 1000 nM. The inhibition in vivo at 30 mg/kg with TNF-α production was ≥ 30%.
One may read the inhibition as the relative decrease from the control value, in per cent. High values mean a strong effect, low ones a weak effect. As to `O=S(=O)(c1cccc2cncc(Br)c12)N1CC[C@H](NCc2ccc[nH]2)C1` [Example 1-18], the IC50 on human ROCK1 was < 1000 nM. Further, in experiment [1], the inhibition in vivo at 3000 µM lay within 10 to 20%. Besides, the inhibition in vivo at 30 mg/kg in the experiment with TNF-α production was ≥ 50%. In experiment [2], the inhibition at 10 µM is ≥ 50%.
Consider `O=S(=O)(c1cccc2cncc(Br)c12)N1CC[C@H](NC2CCOCC2)C1` [Example 1-30], for which the IC50 on human ROCK1 was 1000 to 3000 nM. In experiment [1], the inhibition in vivo at 3000 µM was ≥ 20%. Also, the inhibition in vivo at 30 mg/kg in the experiment on TNF-α production is ≥ 30%.
Taken in the same sequence, the figures for `O=S(=O)(c1cccc2cncc(Br)c12)N1CC[C@H](NCc2ccco2)C1` [Example 4-1, (S)-3-(2-Furylmethyl)amino-1-(4-bromo-5-isoquinolinesulfonyl)pyrrolidine] were < 1000 nM, ≥ 20% and ≥ 30%.
As for `Cc1ccc(CN[C@H]2CCN(S(=O)(=O)c3cccc4cncc(C)c34)C2)cc1` [Example 8-12], the 50% inhibitory concentration (IC50) against human ROCK1 was < 1000 nM. Moreover, in experiment [1], the inhibition in vivo at 3000 µM is ≥ 20%. Further, the inhibition in vivo at 30 mg/kg with TNF-α production is ≥ 50%.
For the compound `C#Cc1cncc2cccc(S(=O)(=O)N3CC[C@H](N)C3)c12` [Example 10-1, (S)-3-Amino-1-(4-ethynyl-5-isoquinolinesulfonyl)pyrrolidine], on human ROCK1, the IC50 was < 1000 nM. The inhibition in vivo at 3000 µM in experiment [1] is ≥ 20%. Also, the inhibition in vivo at 30 mg/kg in the experiment with TNF-α production is ≥ 50%.
Taken in the same sequence, the figures for `N[C@H]1CCN(S(=O)(=O)c2cccc3cncc(C4CC4)c23)C1` [Example 11-1, (S)-3-Amino-1-(4-cyclopropyl-5-isoquinolinesulfonyl)pyrrolidine] were < 1000 nM, 5 to 10% and ≥ 30%.
Consider `N[C@H]1CCN(S(=O)(=O)c2cccc3cncc(F)c23)C1` [Example 18-1, (S)-3-Amino-1-(4-fluoro-5-isoquinolinesulfonyl)pyrrolidine], for which the IC50 against human ROCK1 lay within 1000 to 3000 nM. Further, the inhibition in vivo at 3000 µM in experiment [1] was ≥ 20%. Also, in the experiment with TNF-α production, the inhibition in vivo at 30 mg/kg is ≥ 50%. Moreover, the inhibition at 10 µM in experiment [2] was ≥ 50%.
For the compound `CN[C@H]1CCN(S(=O)(=O)c2cccc3cncc(F)c23)C1` [Example 18-3, (S)-1-(4-Fluoro-5-isoquinolinesulfonyl)-3-(methylamino)pyrrolidine], the inhibition in vivo at 3000 µM in experiment [1] is ≥ 20%. For the same compound, in the experiment on TNF-α production, the inhibition in vivo at 30 mg/kg was ≥ 50%.
For `O=S(=O)(c1cccc2cncc(Cl)c12)N1CC[C@H](NC2CCOCC2)C1` [Example 19-31], on human ROCK1, the IC50 lay within 1000 to 3000 nM. Also, in the experiment with TNF-α production, the inhibition in vivo at 30 mg/kg is ≥ 50%. For the same compound, the inhibition at 10 µM in experiment [2] was ≥ 50%.
As to `N[C@H]1CCN(S(=O)(=O)c2cccc3c(O)ncc(F)c23)C1` [Example 29-1, (S)-3-Amino-1-(1-hydroxy-4-fluoro-5-isoquinolinesulfonyl)pyrrolidine], the IC50 at human ROCK1 was < 1000 nM. The inhibition in vivo at 3000 µM in experiment [1] lay in the range of 10 to 20%. In the experiment on TNF-α production, the inhibition in vivo at 30 mg/kg was ≥ 50%. Moreover, the inhibition at 10 µM in experiment [2] is ≥ 50%.
With `CN[C@@H]1CCN(S(=O)(=O)c2cccc3cncc(Cl)c23)C1` [Example 32-2, (R)-1-(4-Chloro-5-isoquinolinesulfonyl)-3-(methylamino)pyrrolidine], the IC50 against human ROCK1 is < 1000 nM. In experiment [1], the inhibition in vivo at 3000 µM was 10 to 20%. For the same compound, the inhibition at 10 µM in experiment [2] is ≥ 50%.
Regarding `CN[C@H]1CCN(S(=O)(=O)c2cccc3c(O)ncc(Br)c23)C1` [Example 35-1, (S)-1-(1-Hydroxy-4-bromo-5-isoquinolinesulfonyl)-3-(methylamino)pyrrolidine], the IC50 on human ROCK1 is < 1000 nM. Besides, the inhibition in vivo at 3000 µM in experiment [1] was 5 to 10%. For the same compound, in the experiment on TNF-α production, the inhibition in vivo at 30 mg/kg is ≥ 50%.
Take `CN[C@H]1CCN(S(=O)(=O)c2cccc3c(O)ncc(F)c23)C1` [Example 37-1, (S)-1-(1-Hydroxy-4-fluoro-5-isoquinolinesulfonyl)-3-(methylamino)pyrrolidine]: the inhibition in vivo at 30 mg/kg with TNF-α production was ≥ 30%.
`Nc1ncc(Cl)c2c(S(=O)(=O)N3CC[C@H](N)C3)cccc12` [Example 39-1, (S)-3-Amino-1-(1-amino-4-chloro-5-isoquinolinesulfonyl)pyrrolidine]: the IC50 at human ROCK1 is < 1000 nM. Moreover, the inhibition in vivo at 3000 µM in experiment [1] was 10 to 20%. Besides, in the experiment with TNF-α production, the inhibition in vivo at 30 mg/kg is ≥ 50%. Moreover, the inhibition at 10 µM in experiment [2] was ≥ 50%.
On human ROCK1, `CN[C@H]1CCN(S(=O)(=O)c2cccc3c(N)ncc(Cl)c23)C1` [Example 40-1, (S)-1-(1-Amino-4-chloro-5-isoquinolinesulfonyl)-3-(methylamino)pyrrolidine] returned an IC50 of 1000 to 3000 nM. Besides, in experiment [1], the inhibition in vivo at 3000 µM is 5 to 10%. In the experiment on TNF-α production, the inhibition in vivo at 30 mg/kg is ≥ 50%. For the same compound, the inhibition at 10 µM in experiment [2] was ≥ 50%.
In the case of `CN[C@H]1CCN(S(=O)(=O)c2cccc3c(N)ncc(Br)c23)C1` [Example 42-1, (S)-1-(1-Amino-4-bromo-5-isoquinolinesulfonyl)-3-(methylamino)pyrrolidine], on human ROCK1, the concentration for half-maximal inhibition (IC50) is < 1000 nM. Besides, the inhibition in vivo at 3000 µM in experiment [1] is 5 to 10%. Moreover, in experiment [2], the inhibition at 10 µM is ≥ 50%.
Take `COCC(=O)N[C@H]1CCN(S(=O)(=O)c2cccc3cncc(Cl)c23)C1` [Example 56-1, (S)-3-(2-Methoxyacetyl)amino-1-(4-chloro-5-isoquinolinesulfonyl)pyrrolidine]: the IC50 against human ROCK1 is 1000 to 3000 nM. The inhibition in vivo at 3000 µM in experiment [1] is ≥ 20%. Further, in the experiment on TNF-α production, the inhibition in vivo at 30 mg/kg is ≥ 30%.
`COCC(=O)N[C@H]1CCN(S(=O)(=O)c2cccc3cncc(Br)c23)C1` [Example 71, (S)-3-(2-Methoxyacetyl)amino-1-(4-bromo-5-isoquinolinesulfonyl)pyrrolidine]: the inhibition in vivo at 3000 µM in experiment [1] is ≥ 20%. The inhibition in vivo at 30 mg/kg with TNF-α production was ≥ 30%.
